The text below walks through data of USRE49361E1, “Fused bicyclic (hetero)aromatic compounds useful for the treatment of cancers” (JAZZ PHARMACEUTICALS IRELAND LIMITED, priority 2014, dated 2023).

Each structure is given as a SMILES string.

The experiment has as its system C-RAF-mediated ERK activation in B-RAF^WT IPC-298 cells (NRAS^Q61L). In words: IPC-298 AlphaScreen SureFire pERK1/2 cellular assay. In kind it is cell-based, human. As to conditions: 1 hour treatment, in comparison to Dabrafenib. On the technique in general: In Alpha technology, singlet oxygen from a donor bead excites a nearby acceptor bead.
Protocol: On day 2, compounds at a concentration of 6 mM are serially diluted 5 μl into 45 μl of 100% dimethyl sulfoxide (DMSO) six times in 96-well plates for a total of 7 dilution points. […] The cells are treated for 1 hour at 37° C. in 5% CO2. The treatment is then removed and the cells are incubated with lysis buffer containing phosphatase inhibitors for 10 minutes at room temperature with gentle shaking. […] The biotinylated antibody binds to the streptavidin-coated donor beads and the phopsho-ERK1/2 antibody binds to the acceptor beads. Plates are read on an EnVision reader (Perkin Elmer) and excitation of the beads at 680 nm with a laser induces the release of singlet oxygen molecules from the donor beads that triggers energy transfer to the acceptor beads in close proximity, producing a signal that can be measured at 570 nm. Both antibodies bind to phosphorylated ERK proteins, bringing the donor and acceptor beads into close proximity.
All data are analysed using the GraphPad Prism software package. Activation of ERK phosphorylation is expressed as a percentage of activation relative to the reference compound, Dabrafenib.
In the case of `O=C1CCc2c(Oc3ccc4c(c3)CC(c3nc(-c5ccncc5)c[nH]3)CO4)ccnc2N1` (stereo not drawn) [Example 4, 5-[3-[4-(4-pyridyl)-1H-imidazol-2-yl]chroman-6-yl]oxy-3,4-dihydro-1H-1,8-naphthyridin-2-one], the “paradoxical activation of MAPK pathway (ERK phosphorylation) relative to Dabrafenib” value was “reduced paradoxical activity”.
For `O=C1CCc2c(Oc3ccc4c(c3)CC(c3nc(-c5cccs5)c[nH]3)CO4)ccnc2N1` (stereo not drawn) [Example 7, 5-[3-[4-(2-thienyl)-1H-imidazol-2-yl]chroman-6-yl]oxy-3,4-dihydro-1H-1,8-naphthyridin-2-one] the value was “reduced paradoxical activity”; for `O=C1CCc2c(Oc3ccc4c(c3)CC(c3nc(-c5ccsc5)c[nH]3)CO4)ccnc2N1` (stereo not drawn) [Example 6, 5-[3-[4-(3-thienyl)-1H-imidazol-2-yl]chroman-6-yl]oxy-3,4-dihydro-1H-1,8-naphthyridin-2-one], “reduced paradoxical activity”.
The result for `O=C1CCc2c(Oc3ccc4c(c3)O[C@@H](c3nc(-c5ccccc5)c[nH]3)CO4)ccnc2N1` [Example 19, 5-[[(3S)-3-(4-phenyl-1H-imidazol-2-yl)-2,3-dihydro-1,4-benzodioxin-6-yl]oxy]-3,4-dihydro-1H-1,8-naphthyridin-2-one] reads “reduced paradoxical activity”; that for `O=C1CCc2c(Oc3ccc4c(c3)CC(c3cc(-c5ccccc5)[nH]n3)CO4)ccnc2N1` (stereo not drawn) [Example 18, 5-[3-(5-phenyl-1H-pyrazol-3-yl)chroman-6-yl]oxy-3,4-dihydro-1H-1,8-naphthyridin-2-one], “reduced paradoxical activity”; that for `O=C1CCc2c(Oc3ccc4c(c3)O[C@H](c3nc(-c5ccccc5)c[nH]3)CO4)ccnc2N1` [Example 20, 5-[[(3R)-3-(4-phenyl-1H-imidazol-2-yl)-2,3-dihydro-1,4-benzodioxin-6-yl]oxy]-3,4-dihydro-1H-1,8-naphthyridin-2-one], “reduced paradoxical activity”.
